Results reported in patent publication US11007128B2, “Composition for preventing or treating dental erosion” (MEDA OTC AB, priority 2014, dated 2021).

Columns and labels:
[1] = 0.15% HF at pH 2.58, 5 minutes at 37° C.; then 2% citric acid 15 minutes at 37° C.
Excerpt: A low vacuum scanning electron microscope, JEOL JSM 6610 LV, was used for studying surfaces.
SEM pictures were taken with 5000 times magnification (SEM×5000).
A human ex vivo tooth (premolar) was received from a dentist practice. The tooth was stored in Ringer solution and kept in refrigerator.
The effect of the HF treatment on HA surfaces was verified using an ex vivo human premolar tooth. The tooth had been split into two halves before the experiment (tooth 1:1 and tooth 1:2). The two tooth halves were rinsed with distilled water. One tooth half was placed in a 50 ml plastic bottle containing 2% citric acid and then allowed to incubate at 37° C. for 15 minutes under gentle agitation. The tooth was then rinsed with distilled water for a few minutes and then put on tissue paper to dry. […] The tooth half was rinsed with distilled water and then immersed in 2% citric acid and then allowed to incubate at 37° C. for 15 minutes under gentle agitation. The tooth was then rinsed with distilled water and left to dry on tissue paper for a few minutes.

[2] = 0.2% HF solution, pH 2.0, ~0.1 mol/l F; sound enamel; cited from earlier work

For `F` [HF, hydrogen fluoride], the “SEM: protection of enamel from etching” value [1] is listed as “clearly protected from etching” and the “duration of protective effect against citric acid attack” value [2] is listed as “at least 1 week”.
